Results reported in ChEMBL document CHEMBL1123838, “Analgesic dipeptide derivatives. 3. Synthesis and structure-activity relationships of o-nitrophenyl-modified analogues of the analgesic compound H-Lys-Trp(NPS)-OMe” (1987).
Peptide text beside a SMILES is read from it.

How the values were obtained:
Assay type in all cases: functional
[1] = test system: Mus musculus; assay: Tested for analgesic activity, using Tail-Flick test in Mice at the dose of 1 ug/mouse administered icv after 5 min.
[2] = test system: Mus musculus; assay: Tested for analgesic activity, using Tail-Flick test in Mice at the dose of 1 ug/mouse administered icv after 30 min.
[3] = test system: Mus musculus; assay: Tested for analgesic activity, using Tail-Flick test in Mice at the dose of 0.5 ug/mouse administered icv after 5 min.
[4] = test system: Mus musculus; assay: Tested for analgesic activity, using Tail-Flick test in Mice at the dose of 2.5 ug/mouse administered icv after 5 min.
[5] = test system: Mus musculus; assay: Tested for analgesic activity, using Tail-Flick test in Mice at the dose of 2.5 ug/mouse administered icv after 30 min.
[6] = test system: Mus musculus; assay: Tested for analgesic activity, using Tail-Flick test in Mice at the dose of 0.5 ug/mouse administered icv after 30 min.
[7] = test system: Mus musculus; assay: Tested for analgesic activity, using Tail-Flick test in Mice at the dose of 1 ug/mouse administered icv after 60 min.
[8] = test system: Mus musculus; assay: Tested for analgesic activity, using Tail-Flick test in Mice at the dose of 2.5 ug/mouse administered icv after 60 min.
[9] = test system: Mus musculus; assay: Tested for analgesic activity, using Tail-Flick test in Mice at the dose of 0.5 ug/mouse administered icv after 60 min.
[10] = test system: Mus musculus; assay: Tested for analgesic activity, using Tail-Flick test in Mice at the dose of 0.1 ug/mouse administered icv after 5 min.
[11] = test system: Mus musculus; assay: Tested for analgesic activity, using Tail-Flick test in Mice at the dose of […] administered icv after 30 min
[12] = test system: Mus musculus; assay: Tested for analgesic activity, using Tail-Flick test in Mice at the dose of 0.5 ug/mouse administered icv after 5 min
[13] = test system: Mus musculus; assay: Tested for analgesic activity, using Tail-Flick test in Mice at the dose of 0.1 ug/mouse administered icv after 60 min.
[14] = test system: Mus musculus; assay: Tested for analgesic activity, using Tail-Flick test in Mice at the dose of 0.1 ug/mouse administered icv after 30 min.

Compound | Change [1] | Change [2] | Change [3] | Change [4] | Change [5] | Change [6] | Change [7] | Change [8] | Change [9] | Change [10] | Change [11] | Change [12] | Change [13] | Change [14]
COC(=O)CCSn1cc(CC(NC(=O)C(N)CCCCN)C(=O)OC)c2ccccc21 (configuration not stated) | 15% | 7% | 11% | 16% | 15% | 10% | 9% | 0% | 9% |  |  |  |  | 
COC(=O)C(Cc1cn(Sc2ccccc2NC(C)=O)c2ccccc12)NC(=O)C(N)CCCCN (configuration not stated) | 25% | 20% | 0% | 27% | 26% | -2% | 15% | 10% | 5% |  |  |  |  | 
CSCC[C@H](N)C(=O)N[C@@H](C)C(=O)NCC(=O)NCC(=O)N[C@@H](Cc1ccc(O)cc1)C(N)=O (H-MAGGY-NH2) | 210% | 118% |  |  |  |  | 45% |  | 35% | 40% | 76% | 122% | -7% | 26%
